Laboratory results published in ChEMBL document CHEMBL1201862, “PubChem BioAssay data set” (2004).
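Tested at 5 concentrations; 48 h exposure; 96-well plates; endpoints linearly interpolated, else capped at highest concentration. GI50 = concentration required for 50% inhibition of growth.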 Calls of active or inactive are those of the source. Rule as the data show it: active = GI50 up to about 1.1 µM and inactive = higher.

Experiments:
Assay in all cases: NCI tumour cell line growth inhibition, 48 h
OVCAR-5 = tested on: OVCAR-5
EKVX = tested on: EKVX
SW-620 = tested on: SW-620
SK-MEL-5 = tested on: SK-MEL-5
CCRF-CEM = tested on: CCRF-CEM
UO-31 = tested on: UO-31
OVCAR-8 = tested on: OVCAR-8
SF-539 = tested on: SF-539
SF-295 = tested on: SF-295
UACC-62 = tested on: UACC-62
HT-29 = tested on: HT-29
HCT-15 = tested on: HCT-15
UACC-257 = tested on: UACC-257
HOP-62 = tested on: HOP-62
MCF7 = tested on: MCF7
KM12 = tested on: KM12
COLO 205 = tested on: COLO 205
ACHN = tested on: ACHN
M14 = tested on: M14
TK-10 = tested on: TK-10

| SMILES | GI50 (OVCAR-5) | GI50 (EKVX) | GI50 (SW-620) | GI50 (SK-MEL-5) | GI50 (CCRF-CEM) | GI50 (UO-31) | GI50 (OVCAR-8) | GI50 (SF-539) | GI50 (SF-295) | GI50 (UACC-62) | GI50 (HT-29) | GI50 (HCT-15) | GI50 (UACC-257) | GI50 (HOP-62) | GI50 (MCF7) | GI50 (KM12) | GI50 (COLO 205) | GI50 (ACHN) | GI50 (M14) | GI50 (TK-10) |
| --- | --- | --- | --- | --- | --- | --- | --- | --- | --- | --- | --- | --- | --- | --- | --- | --- | --- | --- | --- | --- |
| O=C1CCC[C@H]2O[C@@H](COC(=O)c3ccccc3)C[C@H]2O1 | > 100 µM (inactive) | > 100 µM (inactive) | > 100 µM (inactive) | > 100 µM (inactive) | > 100 µM (inactive) | > 100 µM (inactive) | > 100 µM (inactive) | > 100 µM (inactive) | > 100 µM (inactive) | > 100 µM (inactive) | > 100 µM (inactive) | > 100 µM | > 100 µM (inactive) | > 100 µM (inactive) | > 100 µM (inactive) | > 100 µM (inactive) | > 100 µM (inactive) | > 100 µM (inactive) | > 100 µM (inactive) |  |
| CC1CC(=O)N2CCCNC2=C1C#N (centres undefined) |  | > 100 µM (inactive) | > 100 µM (inactive) | > 100 µM (inactive) | > 100 µM (inactive) | > 100 µM (inactive) | > 100 µM (inactive) | > 100 µM (inactive) | > 100 µM (inactive) | > 100 µM (inactive) | > 100 µM (inactive) | > 100 µM | > 100 µM (inactive) | > 100 µM (inactive) | > 100 µM (inactive) | > 100 µM (inactive) | > 100 µM (inactive) |  | > 100 µM (inactive) | > 100 µM (inactive) |
| CP(C)(=S)P(C)(C)=S | > 100 µM (inactive) | > 100 µM (inactive) | > 100 µM (inactive) | > 100 µM (inactive) | > 100 µM (inactive) | > 100 µM (inactive) | > 100 µM (inactive) | > 100 µM (inactive) | > 100 µM (inactive) | > 100 µM (inactive) | > 100 µM (inactive) | > 100 µM | > 100 µM (inactive) | > 100 µM (inactive) | > 100 µM (inactive) |  | > 100 µM (inactive) | > 100 µM (inactive) | > 100 µM (inactive) | > 100 µM (inactive) |
| Cc1ccc(S(=O)(=O)Oc2cc(-c3ccccc3)nc3ccccc23)cc1 | 15.8 µM (inactive) | 19.4 µM (inactive) | 1.22 µM (inactive) | 1.42 µM (inactive) | 2.89 µM (inactive) | 6.3 µM (inactive) | 5.24 µM (inactive) | 2.08 µM (inactive) | 1.91 µM (inactive) | 3.01 µM (inactive) | 1.93 µM (inactive) | 1.41 µM | 10 µM (inactive) | 3.73 µM (inactive) | 0.604 µM (active) | 1.2 µM (inactive) | 0.544 µM (active) |  |  |  |
| Cn1c(=N)n[n+]([O-])c2ccccc21 | 2.51 µM (inactive) | 9.93 µM (inactive) | 2.74 µM (inactive) | 1.59 µM (inactive) | 4.24 µM (inactive) | 5.16 µM (inactive) | 13.2 µM (inactive) | 1.5 µM (inactive) | 3.54 µM (inactive) | 1.75 µM (inactive) | 3.1 µM (inactive) |  | 1.94 µM (inactive) | 2.52 µM (inactive) | 1.8 µM (inactive) | 19 µM (inactive) | 2.33 µM (inactive) | 5.48 µM (inactive) | 1.95 µM (inactive) | 27.2 µM (inactive) |
| COC(=O)C[C@H](COCc1ccccc1)NC(=O)C[C@H](COCc1ccccc1)NC(=O)C[C@H](COCc1ccccc1)NC(=O)OC(C)(C)C | > 100 µM (inactive) | 25.8 µM (inactive) | > 100 µM (inactive) | > 100 µM (inactive) | > 100 µM (inactive) | > 100 µM (inactive) | 23.8 µM (inactive) | 95.3 µM (inactive) | 88.9 µM (inactive) | > 100 µM (inactive) | 72.8 µM (inactive) | > 100 µM |  | 16.9 µM (inactive) | 11.8 µM (inactive) | > 100 µM (inactive) | > 100 µM (inactive) | 80.9 µM (inactive) | 54.6 µM (inactive) |  |
| COC(=O)c1c2c(cc3c1CC1(C3)Cc3cc4c(c(C(=O)OC)c3C1)CCC4)CCC2 | > 100 µM (inactive) | > 100 µM (inactive) |  | > 100 µM (inactive) | 98.9 µM (inactive) | 13.6 µM (inactive) | > 100 µM (inactive) | > 100 µM (inactive) | > 100 µM (inactive) | 55.8 µM (inactive) | > 100 µM (inactive) |  | > 100 µM (inactive) | > 100 µM (inactive) | > 100 µM (inactive) | > 100 µM (inactive) | > 100 µM (inactive) | > 100 µM (inactive) | > 100 µM (inactive) | > 100 µM (inactive) |
| O=C(CSCC(=O)N/N=C/c1ccncc1)N/N=C/c1ccncc1 | > 100 µM (inactive) | > 100 µM (inactive) | > 100 µM (inactive) | > 100 µM (inactive) | > 100 µM (inactive) | > 100 µM (inactive) | > 100 µM (inactive) | > 100 µM (inactive) | > 100 µM (inactive) | > 100 µM (inactive) | > 100 µM (inactive) | > 100 µM | > 100 µM (inactive) | > 100 µM (inactive) | > 100 µM (inactive) | > 100 µM (inactive) |  | > 100 µM (inactive) | > 100 µM (inactive) | > 100 µM (inactive) |
| O=C(NCCN(CCNC(=O)c1cccc(=O)n1O)CCN(CCNC(=O)c1cccc(=O)n1O)CCNC(=O)c1cccc(=O)n1O)c1cccc(=O)n1O | > 100 µM (inactive) |  | > 100 µM (inactive) | > 100 µM (inactive) | > 100 µM (inactive) | > 100 µM (inactive) | > 100 µM (inactive) | > 100 µM (inactive) | > 100 µM (inactive) | > 100 µM (inactive) | 89.9 µM (inactive) | > 100 µM | > 100 µM (inactive) | > 100 µM (inactive) | > 100 µM (inactive) | > 100 µM (inactive) | > 100 µM (inactive) | > 100 µM (inactive) | > 100 µM (inactive) | > 100 µM (inactive) |
| CC(=O)OC[C@@]12Cc3ccc(C)c(O)c3[C@]1(C)[C@@H](OC(C)=O)[C@]1(O)[C@H]([C@@H](OC(=O)c3ccccc3)[C@@H](C)[C@H]1OC(C)=O)[C@H]2OC(C)=O | > 50 µM (inactive) | > 50 µM (inactive) | > 50 µM (inactive) | > 50 µM (inactive) | > 50 µM (inactive) | > 50 µM (inactive) | > 50 µM (inactive) | > 50 µM (inactive) | > 50 µM (inactive) | > 50 µM (inactive) |  | > 50 µM | > 50 µM (inactive) | > 50 µM (inactive) | > 50 µM (inactive) | > 50 µM (inactive) | > 50 µM (inactive) | > 50 µM (inactive) | > 50 µM (inactive) | > 50 µM (inactive) |
| Nc1nc(Cl)cc(NC2(CO)CCC2)n1 | > 100 µM (inactive) | > 100 µM (inactive) | > 100 µM (inactive) | > 100 µM (inactive) | > 100 µM (inactive) | > 100 µM (inactive) | > 100 µM (inactive) | > 100 µM (inactive) | > 100 µM (inactive) | > 100 µM (inactive) | > 100 µM (inactive) | > 100 µM | > 100 µM (inactive) | > 100 µM (inactive) | > 100 µM (inactive) | > 100 µM (inactive) | > 100 µM (inactive) | > 100 µM (inactive) |  | > 100 µM (inactive) |
| NC1=NCC(CN2CCCCC2)O1 (centres undefined) |  | > 100 µM (inactive) | > 100 µM (inactive) | > 100 µM (inactive) | > 100 µM (inactive) | > 100 µM (inactive) | > 100 µM (inactive) | > 100 µM (inactive) | > 100 µM (inactive) | > 100 µM (inactive) | > 100 µM (inactive) | > 100 µM | > 100 µM (inactive) | > 100 µM (inactive) | > 100 µM (inactive) | > 100 µM (inactive) | > 100 µM (inactive) | > 100 µM (inactive) | > 100 µM (inactive) | > 100 µM (inactive) |
| COc1ccc(/C=C2\Sc3nnc(CNc4ccc(Cl)cc4)n3N=C2c2cc(F)c(Cl)cc2Cl)cc1OC | 88.9 µM (inactive) | > 100 µM (inactive) | 15.8 µM (inactive) | > 100 µM (inactive) | 4.97 µM (inactive) | 56.9 µM (inactive) | 24.7 µM (inactive) | > 100 µM (inactive) | > 100 µM (inactive) |  | 28.6 µM (inactive) | 15.9 µM | > 100 µM (inactive) | > 100 µM (inactive) | 23.9 µM (inactive) | 83.8 µM (inactive) |  | 48.4 µM (inactive) | 59.8 µM (inactive) | 86.7 µM (inactive) |
| Nc1cc(CO)cc(Nc2nc3ccc(Cl)cc3c3[nH]c4ccccc4c23)c1 | 3.85 µM (inactive) | 1.52 µM (inactive) | 4.44 µM (inactive) |  | 4.79 µM (inactive) | 2.9 µM (inactive) | 4.28 µM (inactive) | 3.34 µM (inactive) | 3.56 µM (inactive) | 1.85 µM (inactive) | 3.64 µM (inactive) | 3.92 µM | 10.7 µM (inactive) | 7.19 µM (inactive) | 0.67 µM (active) | 4.98 µM (inactive) | 2.29 µM (inactive) | 3.17 µM (inactive) | 4.98 µM (inactive) | 6.05 µM (inactive) |
| Cc1cccc(N(CCC#N)S(=O)(=O)c2ccccc2)c1 | > 100 µM (inactive) | > 100 µM (inactive) | > 100 µM (inactive) | 69 µM (inactive) | > 100 µM (inactive) | 97.7 µM (inactive) | > 100 µM (inactive) | > 100 µM (inactive) |  | > 100 µM (inactive) | > 100 µM (inactive) | > 10 µM | > 100 µM (inactive) | > 100 µM (inactive) | > 100 µM (inactive) | > 100 µM (inactive) | > 100 µM (inactive) | > 100 µM (inactive) | > 100 µM (inactive) | > 100 µM (inactive) |
